Test results as given in US8450324B2, “Crystalline base of trans-1-((1R,3S)-6-chloro-3-phenylindan-1-yl)-3,3-dimethylpiperazine” (H. Lunbeck A/S, priority 2005, dated 2013).

Key:
dopamine D1 receptors = dopamine D1 receptors (Homo sapiens, UniProt P21728); details: as described in PCT/DK04/000546; cited from earlier work
QT interval = details: rabbit model; as described in PCT/DK04/000546; cited from earlier work
[1] = tested on: pigs sensitized to haloperidol; assay: dystonia in pigs sensitized to haloperidol; assay type: in vivo
dopamine D2 receptors = dopamine D2 receptors (Homo sapiens, UniProt P14416); details: as described in PCT/DK04/000546; cited from earlier work
[2] = target: serotonin 5-HT2a receptors (Homo sapiens, UniProt P28223); details: as described in PCT/DK04/000546; cited from earlier work
[3] = target: dopamine (DA) D1 receptors (Homo sapiens, UniProt P21728); details: as described in PCT/DK04/000546; cited from earlier work
CYP2D6 = CYP2D6 (Homo sapiens, UniProt P10635); details: as described in PCT/DK04/000546; cited from earlier work
alfa1 adrenoceptors = details: as described in PCT/DK04/000546; cited from earlier work
DA D2 receptors = DA D2 receptors (Homo sapiens, UniProt P14416); details: as described in PCT/DK04/000546; cited from earlier work
Sequence of DA D2 receptors (P14416 whole entry): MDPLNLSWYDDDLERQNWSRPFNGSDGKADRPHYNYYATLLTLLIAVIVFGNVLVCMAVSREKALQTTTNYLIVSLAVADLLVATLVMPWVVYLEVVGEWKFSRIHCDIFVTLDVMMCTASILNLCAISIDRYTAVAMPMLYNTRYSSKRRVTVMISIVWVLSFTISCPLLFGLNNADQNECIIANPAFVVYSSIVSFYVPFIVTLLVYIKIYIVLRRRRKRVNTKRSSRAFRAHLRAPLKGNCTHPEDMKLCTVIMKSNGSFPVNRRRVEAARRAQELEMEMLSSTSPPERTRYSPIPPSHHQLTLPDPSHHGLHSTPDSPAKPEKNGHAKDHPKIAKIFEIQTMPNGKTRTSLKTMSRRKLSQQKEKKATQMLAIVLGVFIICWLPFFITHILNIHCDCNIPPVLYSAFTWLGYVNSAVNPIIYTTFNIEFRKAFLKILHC

Sequence of CYP2D6 (P10635 whole entry): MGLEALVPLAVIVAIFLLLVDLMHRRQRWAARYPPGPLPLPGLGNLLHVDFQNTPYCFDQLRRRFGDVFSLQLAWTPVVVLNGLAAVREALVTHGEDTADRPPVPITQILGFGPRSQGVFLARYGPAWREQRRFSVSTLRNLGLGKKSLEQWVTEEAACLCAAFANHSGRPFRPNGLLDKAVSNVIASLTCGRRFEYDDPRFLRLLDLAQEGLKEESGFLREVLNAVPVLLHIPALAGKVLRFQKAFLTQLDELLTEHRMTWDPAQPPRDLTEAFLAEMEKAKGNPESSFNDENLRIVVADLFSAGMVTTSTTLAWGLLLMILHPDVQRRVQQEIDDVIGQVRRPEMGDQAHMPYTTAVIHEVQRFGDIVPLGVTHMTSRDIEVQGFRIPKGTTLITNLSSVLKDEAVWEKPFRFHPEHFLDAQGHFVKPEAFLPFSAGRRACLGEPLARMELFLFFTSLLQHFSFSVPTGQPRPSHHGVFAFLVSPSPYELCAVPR
Sequence of dopamine D2 receptors (P14416 whole entry): as the sequence (P14416 whole entry) above
Sequence of serotonin 5-HT2a receptors (P28223 whole entry): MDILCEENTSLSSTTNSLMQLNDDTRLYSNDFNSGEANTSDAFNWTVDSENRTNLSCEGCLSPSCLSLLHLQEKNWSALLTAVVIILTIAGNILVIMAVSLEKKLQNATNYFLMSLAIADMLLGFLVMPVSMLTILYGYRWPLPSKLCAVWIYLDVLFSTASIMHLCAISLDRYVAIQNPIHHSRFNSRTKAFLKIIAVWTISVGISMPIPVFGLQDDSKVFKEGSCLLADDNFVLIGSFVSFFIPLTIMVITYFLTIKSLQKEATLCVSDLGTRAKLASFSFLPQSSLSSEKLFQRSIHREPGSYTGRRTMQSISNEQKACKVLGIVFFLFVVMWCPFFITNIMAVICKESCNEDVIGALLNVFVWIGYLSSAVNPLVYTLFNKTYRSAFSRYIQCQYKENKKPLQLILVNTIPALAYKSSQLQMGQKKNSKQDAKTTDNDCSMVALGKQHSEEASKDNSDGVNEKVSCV
Sequence of dopamine D1 receptors (P21728 whole entry): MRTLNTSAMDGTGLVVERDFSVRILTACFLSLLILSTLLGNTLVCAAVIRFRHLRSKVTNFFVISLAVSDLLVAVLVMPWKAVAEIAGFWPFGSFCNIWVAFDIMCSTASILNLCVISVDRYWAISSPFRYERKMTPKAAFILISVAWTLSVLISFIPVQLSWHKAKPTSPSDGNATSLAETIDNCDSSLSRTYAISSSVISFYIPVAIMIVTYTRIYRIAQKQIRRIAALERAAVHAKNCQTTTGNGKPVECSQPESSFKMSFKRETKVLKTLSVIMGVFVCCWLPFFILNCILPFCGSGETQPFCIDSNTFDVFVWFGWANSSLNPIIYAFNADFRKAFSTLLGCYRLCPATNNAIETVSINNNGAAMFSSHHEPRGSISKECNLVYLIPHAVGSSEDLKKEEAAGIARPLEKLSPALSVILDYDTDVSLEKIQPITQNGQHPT
Sequence of dopamine (DA) D1 receptors (P21728 whole entry): as above

For `CC1(C)CN([C@@H]2C[C@@H](c3ccccc3)c3ccc(Cl)cc32)CCN1` [Compound I, trans-1-((1R,3S)-6-chloro-3-phenylindan-1-yl)-3,3-dimethylpiperazine], the “functional activity at dopamine D1 receptors” value (dopamine D1 receptors) is given as “antagonist”, the “effect on the QT interval” value (QT interval) is given as “relatively low effect” and the “induction of dystonia (EPS liability)” value [1] is given as “did not induce dystonia”. For the same compound, the “functional activity at dopamine D2 receptors” value (dopamine D2 receptors) was “antagonist”, the “functional activity at serotonin 5-HT2a receptors” value [2] was “antagonist” and the “affinity for dopamine (DA) D1 receptors” value [3] was “high affinity”. For the same compound, the “inhibition of CYP2D6” value (CYP2D6) was “relatively weak inhibitor”, the “affinity for alfa1 adrenoceptors” value (alfa1 adrenoceptors) was “high affinity” and the “affinity for DA D2 receptors” value (DA D2 receptors) was “high affinity”.
